In US11492341B2, “ACLY inhibitors and uses thereof” (Nimbus Artemis, Inc., priority 2018, dated 2022) one finds IC50 data, which are given here for 13 compounds.

The subject of one assay is ACC1. Conditions: ACC1 isolated from rat, mouse, monkey and human; cited from earlier work.
A further assay concerns ACC2. The conditions noted are these: ACC2 isolated from rat, mouse, monkey and human; cited from earlier work.
The next assay deals with ACL (Homo sapiens (Human), UniProt P53396). In words: ADP-Glo Assay. The assay is classed as biochemical. Conditions: 3 nM ACL, 15 μM ATP, 3 μM CoA, 300 μM Citrate. The procedure, abridged:
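Human ACL (3 nM) preincubated with compound 15 min at 25 °C, then reacted 60 min at 25 °C with 15 μM ATP, 3 μM CoA, 300 μM citrate, 0.01% Brij35, 4 mM DTT, 1% DMSO. ADP measured by ADP-Glo luminescence. Compounds tested from 30 or 100 μM top concentration, 3-fold dilutions, 11 points, duplicates.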

For assay [1], the system named is HepG2 cells. In words: ACLY HepG2 14C-pyruvate incorporation assay with serum (IC50 Fatty Acid). It is filed as cell-based. The conditions noted are these: Homo sapiens, Table 8, with serum, read-out: ACLY HepG2 ^14C- Pyruvate Assay with serum IC50 Fatty Acid 96 well (IC50). How it is done: (§1) Example 30. ACLY HepG2 ^14C-Pyruvate Incorporation Assay with Serum
(§2) Compounds of the invention were also assayed in an ACLY HepG2 ^14C-pyruvate incorporation assay with serum (IC50 Cholesterol) and (IC50 Fatty Acid). The protocol of the assay (below) was followed:
(§3) HepG2 cells were seed at 5 k cells/well in 96-well cell culture plate in DMEM with 10% FBS (heat inactivated and 25 mM glucose). After 48 hours, the medium was replaced with fresh medium containing 10% FBS (heat inactivated and 25 mM glucose).
(§4) After 18 hours, the medium was replaced with 200 uL of DMEM (5.5 mM glucose without pyruvate) with or without FBS containing compounds (30, 10, 3.33, 1.11, 0.370, 0.123, 0.041 uM). DMSO concentration was 0.5%. The cells were incubated with compounds at 37° C. for 1 hour.
(§5) 2 μci of [14C]-pyruvate was added per well and the cell samples were incubated at 37° C., 5% CO2 for 5 hours.
(§6) The medium was removed and placed into a 96-well polypropylene deep well plate. 200 uL of 0.1N NaOH was added to each well at room temperature to dissolve cell monolayer. The remaining cell suspension was pooled with medium in a 96-well polypropylene deep well plate. 68 uL of 50% KOH was added to the plate containing medium and cell suspensions and capped.
(§7) Cells were incubated at 70° C. for 1 hour, and then cooled to room temperature.
400 ul of the remaining 500 ul petroleum ether layer was removed and discard. 1 mL petroleum ether was added to the well, shaken vigorously, and centrifuged at 1000 rpm for 5 minutes. All 1100 ul of the petroleum ether layer removed and discarded. The aqueous phase was then acidified with 500 uL of concentrated HCl, checking pH of one or two extracts to make sure pH below 1 (critical, check by PH paper).
8. Fatty acids extraction
1 mL of petroleum ether was added per well to extract saponifyable lipids (extracted as fatty acids originating from saponified lipids such as triglycerides and phospholipids), shaken vigorously, centrifuged at 1000 rpm for 5 min, and 500 uL of the petroleum ether layer was then transferred to a new 96-well deep well plate. Repeat petroleum ether extraction step one more time and pool the petroleum ether extracts. Evaporate to dryness with SpeedVac overnight. 200 μL of scintillation cocktail was added and shaken and transferred to a 96 well optiplate and counted using the Microbeta Liquid Scintillation Counter.

In assay [2] the test system is HepG2 cells. In words: ACLY HepG2 14C-pyruvate incorporation assay with serum (IC50 Cholesterol). It is filed as cell-based. Conditions: Homo sapiens, Table 7, with serum, IC50 Cholesterol per table title and b713 (column head prints Fatty Acid), read-out: ACLY HepG2 ^14C- Pyruvate Assay with serum IC50 Fatty Acid 96 well (IC50). The protocol: as §1, §2, §3, §4, §5, §6, §7
6. Cholesterol Extraction
1 mL petroleum ether was added per well to extract non-saponifyable lipids (primarily sterols such as cholesterol), shaken vigorously, and centrifuged at 1000 rpm for 5 minutes. 500 μL of the petroleum ether layer was then transferred to a 96 well plate and 200 ul of H2O was added, shaken vigorously, and centrifuged at 1000 rpm for 5 minutes. The petroleum ether layer 500 ul was transferred to a new 96-well plate and evaporated to dryness with SpeedVac overnight. 200 μL of scintillation cocktail was then added and shaken and transferred to a 96 well optiplate and counted using the Microbeta Liquid Scintillation Counter.

Sequence of ACL (P53396 whole entry, species assumed): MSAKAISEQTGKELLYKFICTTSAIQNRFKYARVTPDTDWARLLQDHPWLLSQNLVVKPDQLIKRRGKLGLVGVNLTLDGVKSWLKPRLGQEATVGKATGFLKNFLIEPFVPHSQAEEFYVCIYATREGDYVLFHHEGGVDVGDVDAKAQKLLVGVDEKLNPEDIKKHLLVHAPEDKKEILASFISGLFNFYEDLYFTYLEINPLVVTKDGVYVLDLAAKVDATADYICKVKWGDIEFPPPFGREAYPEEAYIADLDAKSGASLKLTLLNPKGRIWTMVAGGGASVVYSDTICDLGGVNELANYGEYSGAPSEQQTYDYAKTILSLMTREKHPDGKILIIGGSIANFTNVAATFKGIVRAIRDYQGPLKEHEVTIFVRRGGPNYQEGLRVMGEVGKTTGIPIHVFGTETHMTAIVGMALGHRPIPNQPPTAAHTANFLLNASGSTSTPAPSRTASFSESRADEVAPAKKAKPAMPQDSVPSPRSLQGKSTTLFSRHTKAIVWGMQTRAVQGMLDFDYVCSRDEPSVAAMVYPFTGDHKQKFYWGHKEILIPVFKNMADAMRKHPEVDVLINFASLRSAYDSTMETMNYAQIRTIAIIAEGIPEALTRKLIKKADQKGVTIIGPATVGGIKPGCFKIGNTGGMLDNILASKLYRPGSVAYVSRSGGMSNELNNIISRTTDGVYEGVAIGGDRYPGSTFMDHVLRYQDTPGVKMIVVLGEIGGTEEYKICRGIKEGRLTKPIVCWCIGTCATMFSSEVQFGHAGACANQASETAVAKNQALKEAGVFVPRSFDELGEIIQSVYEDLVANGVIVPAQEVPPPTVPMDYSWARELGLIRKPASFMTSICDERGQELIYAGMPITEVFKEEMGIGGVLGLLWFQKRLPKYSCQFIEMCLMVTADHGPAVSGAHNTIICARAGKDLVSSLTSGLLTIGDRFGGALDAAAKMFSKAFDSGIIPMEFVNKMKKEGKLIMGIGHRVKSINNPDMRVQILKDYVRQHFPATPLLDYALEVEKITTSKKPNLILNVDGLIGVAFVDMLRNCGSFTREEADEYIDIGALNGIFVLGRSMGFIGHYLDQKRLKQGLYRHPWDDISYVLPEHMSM

For `O=C(c1c2ccccc2cc2ccccc12)N1CCC(N2CCC[C@@H](C(=O)N3CCOCC3)C2)CC1` [CP-640186], the IC50 with ACC1 and in the assay with ACC2 was about 0.06 µM throughout.

Regarding `O=S(=O)(c1cc(Br)cc(Cl)c1O)n1c(-c2ccccc2)cc2cc(Cl)ccc21` [I-1, 4-bromo-2-chloro-6-((5-chloro-2-phenyl-1H-indol-1-yl)sulfonyl)phenol], the IC50 was 0.5 to 20 µM at ACL, at most 10 µM in the assay with HepG2 cells [1] and at most 10 µM in the assay with HepG2 cells [2].

With `O=S(=O)(c1cc(Br)cc(Cl)c1O)n1c(-c2ccc(OC(F)(F)F)cc2)cc2cc(Cl)ccc21` [I-25, 4-bromo-2-chloro-6-((5-chloro-2-(4-(trifluoromethoxy)phenyl)-1H-indol-1-yl)sulfonyl)phenol], the IC50 on ACL was 0.5 to 20 µM; in the assay with HepG2 cells [1], at most 10 µM; in the assay on HepG2 cells [2] it was at most 10 µM.

As to `COc1ccc(-c2cc3cc(Cl)ccc3n2S(=O)(=O)c2cc(Br)cc(Cl)c2O)cc1` [I-26, 4-bromo-2-chloro-6-((5-chloro-2-(4-methoxyphenyl)-1H-indol-1-yl)sulfonyl)phenol], the IC50 was 0.5 to 20 µM on ACL, at most 10 µM in the assay on HepG2 cells [1] and at most 10 µM in the assay on HepG2 cells [2].

In the case of `COc1ccc(-c2cc3cc(Cl)ccc3n2S(=O)(=O)c2cc(Br)cc(Cl)c2O)cn1` [I-28, 4-bromo-2-chloro-6-((5-chloro-2-(6-methoxypyridin-3-yl)-1H-indol-1-yl)sulfonyl)phenol], the figures for the IC50 against ACL, in the assay with HepG2 cells [1] and in the assay with HepG2 cells [2] were 0.5 to 20 µM, at most 10 µM and at most 10 µM, respectively.

For the compound `Cc1cc2cc(Cl)ccc2n1S(=O)(=O)c1cc(Br)cc(Cl)c1O` [I-30, 4-bromo-2-chloro-6-((5-chloro-2-methyl-1H-indol-1-yl)sulfonyl)phenol], the IC50 was 0.5 to 20 µM against ACL, at most 10 µM in the assay on HepG2 cells [1] and at most 10 µM in the assay on HepG2 cells [2].

With `O=S(=O)(c1cc(Br)cc(Cl)c1O)n1c(-c2cncs2)cc2cc(Cl)ccc21` [I-33, 4-bromo-2-chloro-6-((5-chloro-2-(thiazol-5-yl)-1H-indol-1-yl)sulfonyl)phenol], the IC50 on ACL was 0.5 to 20 µM; in the assay with HepG2 cells [1], at most 10 µM; with HepG2 cells [2] it was at most 10 µM.

Turning to `O=S(=O)(c1cc(Br)cc(Cl)c1O)n1c(-c2cccc(F)c2)cc2cc(Cl)ccc21` [I-40], the IC50 on ACL is 0.5 to 20 µM; in the assay with HepG2 cells [1], at most 10 µM; with HepG2 cells [2] it was at most 10 µM.

In the case of `O=S(=O)(c1cc(Br)cc(Cl)c1O)n1c(-c2ccccc2)cc2cc(F)ccc21` [I-42], the IC50 is 0.5 to 20 µM against ACL, at most 10 µM in the assay on HepG2 cells [1] and at most 10 µM in the assay with HepG2 cells [2].

As for `Cc1c(-c2ccccc2)n(S(=O)(=O)c2cc(Br)cc(Cl)c2O)c2ccc(Cl)cc12` [I-47], the results for the IC50 on ACL, in the assay on HepG2 cells [1] and in the assay with HepG2 cells [2] were 0.5 to 20 µM, at most 10 µM and at most 10 µM, respectively.

For `N#Cc1ccc2c(c1)cc(-c1ccccc1)n2S(=O)(=O)c1cc(Br)cc(Cl)c1O` [I-48], the IC50 at ACL is 0.5 to 20 µM; in the assay on HepG2 cells [1] it was at most 10 µM; in the assay with HepG2 cells [2] it was at most 10 µM.

In the case of `O=S(=O)(c1cc(F)cc(F)c1O)n1c(-c2ccccc2)cc2cc(Cl)ccc21` [I-61], the IC50 at ACL is 0.5 to 20 µM; in the assay with HepG2 cells [1] it was at most 10 µM; in the assay with HepG2 cells [2], at most 10 µM.

On to `N#Cc1ccc2c(c1)cc(-c1ccc(OC(F)(F)F)cc1)n2S(=O)(=O)c1cc(F)cc(F)c1O` [I-81], for which the IC50 against ACL is 0.5 to 20 µM; in the assay with HepG2 cells [1], at most 10 µM; with HepG2 cells [2], at most 10 µM.
